# Experiment: gradient 5% acetonitrile 3 min, to 50% in 2 min, to 85% in 15 min, held 3 min, 100 µL/min
# Conditions: column: Zorbax Extend-C18 2.1 x 50 mm; eluents: water / acetonitrile, 0.1% formic acid
# Outline: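 The mobile phases were water and acetonitrile, each with 0.1% formic acid, pumped at 100 μL/min through a Zorbax Extend-C18 column (2.1 × 50 mm, 1.8 μm). Pure standards were injected as mixtures of ~100 molecules and detected by a quadrupole time-of-flight mass spectrometer in positive and negative ionization mode. Retention time came from computationally picked adduct peaks, each inspected by hand.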
row,RP-LC retention time [s],SMILES
1,679,O=C(Cc1nnc(-c2ccc3ncccc3c2)o1)NC1CCCCC1
2,703,CCNC(=O)C1CCCN(c2nc3ncn(CC(=O)Nc4c(C)cccc4CC)c(=O)c3s2)C1 (centres undefined)
3,1090,Cc1ccc(-c2nc(NC(=O)c3cc(C)on3)sc2C)cc1
4,608,O=C(CN1C(=O)CCC1=O)N1CCC(c2noc(-c3ccccn3)n2)C1 (centres undefined)
5,718,CCN(CC)c1ccc(-c2noc(CN3CCc4ccccc4C3)n2)cn1
6,1330,O=C(c1n[nH]c2ccccc12)N1CCCC1c1nc(-c2cccc(C(F)(F)F)c2)no1 (centres undefined)
7,625,Cc1ccc(-n2ncc3c(NCCCN(C)C)ncnc32)cc1C
8,1010,Cc1cccc(-c2nnc(Cc3nc(-c4ccc5c(c4)OCO5)no3)o2)c1
9,881,O=C(c1nnc(-c2csc(S(=O)(=O)N3CCN(c4ncccn4)CC3)c2)o1)N1CCCCC1
10,1170,O=S(=O)(NC1CCCCCC1)c1ccc(-c2cc(C(F)(F)F)on2)o1
11,932,COc1cccc(Cc2nc(-c3cccc(-c4ccn[nH]4)c3)no2)c1
12,1070,CS(=O)(=O)N1CCC(C(=O)NC2CCCCCCC2)Oc2ccc(Cl)cc21 (centres undefined)
13,1070,CCOC(=O)c1noc2nc(C)nc(N3CCN(c4ccccc4F)CC3)c12
14,712,Cc1cc(C(=O)Nc2nc3c(s2)CN(C(=O)c2cnn(-c4ccccc4)c2C)CC3)no1
15,855,O=C(Cn1nc2c3sc(N4CCCCC4)nc3ncn2c1=O)Nc1cccc(Br)c1
16,762,O=C(NCC1CCCCC1)C1CCCN(c2ccc(-c3ccccc3)nn2)C1 (centres undefined)

row,RP-LC retention time [s],SMILES
1,775,O=S(=O)(c1cc(-c2cc(C(F)(F)F)on2)cs1)N1CCN(C2CCCCC2)CC1
2,1200,Cc1nc2cc(-c3noc(COc4ccccc4)n3)ccc2n(C2CCCC2)c1=O
3,1390,Cc1ccc(C2Cn3nnc(-c4nc(C5CCCCC5)no4)c3CO2)c(C)c1 (centres undefined)
4,846,CCc1ccc(CNC(=O)C2CCN(C(=O)c3ncn4c3COC(c3ccc(F)cc3)C4)CC2)cc1 (centres undefined)
5,982,COc1ccc(-c2cc(C(=O)Nc3cc(C)ccc3C)nn2C2CCS(=O)(=O)C2)cc1 (centres undefined)
6,946,O=C(NCc1ccc(F)cc1)N1CCCC1c1nc(-c2cccc(F)c2)no1 (centres undefined)
7,870,O=C(NC1CCCC1)C1c2cccn2CC(=O)N1c1cccc(Cl)c1 (centres undefined)
8,1070,O=C(Cn1cccc1-c1nc(-c2ccc3c(c2)OCO3)no1)N1CCN(c2ccccc2)CC1
9,1180,COc1ccc(OC)c(-c2csc(-c3nnn(-c4cccc(Cl)c4)c3N)n2)c1
10,720,Cc1ccc2oc(-c3nnc(C(=O)NCCN4CCCCCC4)o3)c(C)c2c1
11,591,Cc1cccc2nnc(N3CCC(C(=O)NCc4ccccc4F)CC3)n12
12,718,O=C(NCC1CN(CC2CC2)CC12CCCCC2)Nc1cc(F)ccc1F (centres undefined)
13,706,Cc1cccc(NC(=O)N2CC(N(C3CCOCC3)S(C)(=O)=O)C2)c1
14,922,COc1ccc(-c2nn(CCCC(=O)N3CCN(c4ccccc4)CC3)c(=O)c3noc(C)c23)cc1
15,620,COCC(=O)Nc1cc(-c2nc3ccc(C)cc3[nH]2)ccc1C

# The next lines start with the molecule.
row,SMILES,RP-LC retention time [s]
1,O=C1CC(c2ccc(Cl)cc2)Cc2nc(N3CCN(c4ccccn4)CC3)ncc21 (centres undefined),752
2,CC(NC(=O)C(=O)NC1CCCCC1)C(c1cccs1)N1CCOCC1 (centres undefined),604
3,COC(=O)c1c(NC(=O)c2cc3ccccc3c(=O)o2)sc2c1CCCC2,748
4,CC(C)NC(=O)Cn1nc2c3cc(-c4ccc(Cl)cc4)nn3ccn2c1=O,823
5,O=C1CCN(C(=O)C2CCN(C(=O)CN3CCCC3=O)CC2)CCCCCCN1,572
6,Cc1csc(C(=O)NCCC(O)C(C)(C)C)c1 (centres undefined),718
7,CCCC(=O)N1CCc2c([nH]c3ccccc23)C1c1ccccc1 (centres undefined),1080
8,CCn1c(=O)c(=O)n(CC(=O)NCc2ccc(C)o2)c2cccnc21,688
9,C=CCn1c(=O)c2ccccc2n(Cc2nc(-c3cccc(C(F)(F)F)c3)no2)c1=O,1110
10,O=C(CCCSc1ccc(NC(=O)c2ccc(F)cc2)nn1)Nc1cccnc1,586
11,CN(C)CCNC(=O)C1CCN(c2nc3ccc(-c4ccc(F)cc4)nc3s2)CC1,686
12,CCc1ccc(C(=O)Nc2cnn(CC)c(=O)c2N2CCOCC2)cc1,1070
13,Cc1ccccc1CNC(=O)C1(C)CCCN(C(=O)Nc2cccc(Cl)c2)C1 (centres undefined),1030
14,CC(=O)Nc1onc(C)c1-c1ccc(C)c(S(=O)(=O)NCc2ccc(Br)cc2)c1,870
15,O=C(Nc1ccc2cn[nH]c2c1)C1c2ccccc2Oc2ccccc21,795
16,O=C(Cn1ncccc1=O)Nc1cccc(-c2cn3c(n2)SCC3)c1,530
17,CCCN(CC1CCOC1)C(=O)c1ccc(F)cc1Cl (centres undefined),773
18,Cc1ccccc1C(=O)Nc1nc(-c2ccc3c(c2)NC(=O)C(C)O3)c(C)s1 (centres undefined),797
19,O=C(Cn1cnc2c(nnn2-c2ccc(Br)cc2)c1=O)NCc1ccco1,776
20,CC1=C(c2cccc(Cl)c2)S(=O)(=O)N=C1N1CCCN(C(=O)c2ccoc2)CC1,806

row,SMILES,RP-LC retention time [s]
1,CC1=NS(=O)(=O)N(Cc2ccccc2)C=C1C(=O)OCc1nc(-c2ccc(F)cc2)no1,1140
2,O=C(NCCc1csc(-c2ccccc2)n1)[C@H]1CCCN1S(=O)(=O)c1cccc2nsnc12,888
3,COc1ccc(OC)c2sc(N(Cc3ccco3)C(=O)Cc3cccs3)nc12,1050
4,CCn1c(=O)c(C(=O)NCc2ccccc2Br)nc2cccnc21,871
5,CCN1CCN(c2ccc(NC(=O)C(C)(C)C)c(C(=O)O)c2)CC1,594
6,CCCSCCCNC(=O)Cn1cnc2nc3c(cc2c1=O)CCCC3,739
7,CCN1CCN(CCCNC(=O)c2c(-c3ccc(Br)s3)noc2C)CC1,594
8,CCCn1c(CCc2ccccc2NS(=O)(=O)c2ccc3c(c2)OCCO3)nc2ccccc21,763
9,Cc1ccc(N2CCN(C(=O)C(C)(C)C)CC2)nn1,531
10,CCS(=O)(=O)c1ccc(C(=O)Nc2nnc(Cc3ccc(Cl)s3)o2)cc1,735
11,CCc1nnc(-c2ccc3ccn(CC(=O)N4CCN(c5ccccn5)CC4)c3c2)o1,614
12,CCN1CCn2cc(S(=O)(=O)NCc3ccc(C)cc3)cc2C1=O,716
13,CC(=O)N1CCCN(C2=NS(=O)(=O)C(c3ccc(Cl)cc3)=C2C)CC1,718
14,CCCc1ccc(S(=O)(=O)N2CCC3(CC2)C(=O)N(CC)c2ccccc23)cc1,1160
15,CC(=O)Nc1ccc(C(=O)N2CCN(c3cc(-c4cccs4)[nH]n3)CC2)cc1,641
16,COCC1CCN(C(=O)NCc2cccc3ccccc23)CC1,769
17,CCc1ccc(Nc2nc(C(=O)NC3CC3)nc3ccccc23)cc1,791
18,O=C(NCCS(=O)(=O)N1CCc2ccccc2C1)c1cc(=O)c2ccccc2o1,733
19,CCCn1cc(CCNS(=O)(=O)c2cccc(C)c2)c2cccnc21,866
20,COc1ccc(-c2noc(CCCC(=O)Nc3nc(-c4ccccc4)cs3)n2)cc1,1060

row,SMILES,RP-LC retention time [s]
1,COCCn1cc2c3c(cccc31)CN(C(=O)Nc1cc(Cl)ccc1OC)CC2,1070
2,O=C(Nc1ccc(F)c(Cl)c1)c1nc2ncccn2n1,729
3,CC(C)=CCC/C(C)=C\C(N)=O,816
4,O=C1[C@H]2CN(Cc3ccccc3OC(F)(F)F)C[C@H]2C(=O)N1Cc1ccc2c(c1)OCO2,1050
5,O=c1c(S(=O)(=O)N2CCCCCC2)cccn1Cc1ccc(F)cc1,933
6,COC(=O)c1cc(S(=O)(=O)N2CCCC2C(=O)Nc2ccc(C)cc2)cn1C (centres undefined),869
7,Cc1cc(=O)n(CC(=O)NCc2cccs2)c(N(C)Cc2ccccc2)n1,698
8,Cc1nc(-c2csc(S(=O)(=O)N3CCC(C(=O)N4CCC5(CC4)OCCO5)CC3)c2)no1,765
9,CCN1C(=O)c2cccnc2Sc2cc(NC(=O)c3ccc(OC)cc3)ccc21,806
10,O=C1NC2(CCN(C(=O)c3ccc(F)c(F)c3)CC2)Nc2c(Cl)cccc21,777
11,CCOc1ccccc1CNC(=O)CN1CCN(Cc2ccc(F)cc2Cl)C1=O,920
12,CCNC(=O)C1CCN(S(=O)(=O)c2cc(C(=O)N3CCCCCC3)cs2)CC1,717
13,COc1ccc(OC)c(NC(=O)Cn2ccc3c(=O)n(C)c(=O)n(C)c32)c1,670
14,COC(=O)CCN1C(=O)c2ccccc2C1=O,688
15,O=C(Nc1nnc(-c2ccc(Br)o2)o1)c1ccc(F)cc1F,740
16,CCc1ccc(S(=O)(=O)N2C[C@@H](F)C[C@H]2C(=O)N2CCc3ccccc3C2)cc1,998
17,O=C(CC1CCN(S(=O)(=O)c2ccc(Cl)s2)CC1)N1CCCCC1,946
18,Cc1nn(-c2nc(-c3ccc(F)cc3)cs2)c(C)c1CC(=O)Nc1cccc(Cl)c1,772

# — the METLIN SMRT retention time set (Domingo-Almenara et al. 2019)
